“Also recorded” adds a separate entry of the source.
Legend:
EL-4 cells = test: 51Cr release assay (CTL activity) with T cells from immunized mice, EL-4 targets; type: in vivo, mouse
Protocol: Immunization: On day 9 after surgery, wounds had generally healed and healthy mice were used for immunization with 30 μg peptide per mouse. Depending on the experiment, CpG deoxyoligonucleotide 1668 (5 -100 pmole/mouse), mouse GM-CSF (10^3 units/mouse) and Titermax classic were used as adjuvants. Generally, injection volume was adjusted to 200 μl per mouse with sterile PBS. When applying Titermax classic, all other injection components were mixed and then added in small portions to an equal volume of Titermax classic. After each addition, the vial was rigorously mixed to obtain a white, semi-fluid water-in-oil suspension. […]
T-cell culture and ^51Cr release assay: On day 9 after immunization, mice were sacrificed and 2*10^7 splenocytes were stimulated in vitro for 5 days using 10^7 irradiated (30 Gy) splenocytes from untreated C57BL/6 mice as feeder cells and 5 ng/ml peptide. Cytotoxic T lymphocyte (CTL) activity was measured in a standard ^51Cr release assay (Brunner et al., 1968). Briefly, stimulated cells were harvested, counted and plated out in a series of […] in a round-bottom 96-well plate. […] After intense washing with cell culture medium, 10^4 of these cells were added to each well of the 96-well plate as targets. ^51Cr release was measured after 4 h incubation at 37° C./5% (v/v) CO2.

[1] = system: ovalbumin-transfected E.G7 mouse tumor cells; test: 51Cr release assay (CTL activity) with T cells from immunized mice, E.G7 targets; type: in vivo
Protocol: Immunization: On day 9 after surgery, wounds had generally healed and healthy mice were used for immunization with 30 μg peptide per mouse. Depending on the experiment, CpG deoxyoligonucleotide 1668 (5 -100 pmole/mouse), mouse GM-CSF (10^3 units/mouse) and Titermax classic were used as adjuvants. Generally, injection volume was adjusted to 200 μl per mouse with sterile PBS. When applying Titermax classic, all other injection components were mixed and then added in small portions to an equal volume of Titermax classic. After each addition, the vial was rigorously mixed to obtain a white, semi-fluid water-in-oil suspension. Injection was either performed subcutaneously into the nape of the neck, the base of tail and the footpad, using a volume ratio of 3:1:1, respectively, or directly into the centre of the right foam implantate.
T-cell culture and ^51Cr release assay: On day 9 after immunization, mice were sacrificed and 2*10^7 splenocytes were stimulated in vitro for 5 days using 10^7 irradiated (30 Gy) splenocytes from untreated C57BL/6 mice as feeder cells and 5 ng/ml peptide. Cytotoxic T lymphocyte (CTL) activity was measured in a standard ^51Cr release assay (Brunner et al., 1968). Briefly, stimulated cells were harvested, counted and plated out in a series of […] in a round-bottom 96-well plate. 10^6 EL-4 cells (C57BL/6-derived T cell lymphoma; ATCC no. TIB-39) were loaded with 50 pmole peptide and [^51Cr] Na2CrO4-labeled at 37° C. for 30 min. After intense washing with cell culture medium, 10^4 of these cells were added to each well of the 96-well plate as targets. ^51Cr release was measured after 4 h incubation at 37° C./5% (v/v) CO2.

[2] = s.c. injection into the nape of the neck, peptide alone, T cells from spleen or lymph nodes of immunized C57BL/6 mice

Sequence | maximum lysis above unspecific background (EL-4 cells; peptide injected into s.c. implanted PVA foams, T cells from axillary and cervical lymph nodes, independent second experiment) | maximum lysis above unspecific background ([1]; peptide injected into s.c. implanted PVA foams, T cells from spleen) | lysis of ovalbumin-transfected E.G7 cells by T cells ([1]; peptide injected into s.c. implanted PVA foams, T cells from spleen or lymph node) | immune response / recognition of E.G7 target cells by T cells [1, 2] | recognition of untransfected EL-4 target cells by T cells (EL-4 cells; [2])
ASNENMETM (peptide ASNENMETM derived from influenza nucleoprotein (amino acid 366-374)) [peptide derived from influenza nucleoprotein (amino acid 366-374)] | 37% |  |  |  | 
SIINFEKL (Ovalbumin-derived SIINFEKL peptide (amino acid 257-264)) [peptide derived from chicken ovalbumin (amino acid 257-264), model ligand of mouse MHC class I allele H2-Kb] |  | approximately 45% | able to lyse | Neither ovalbumin-transfected E.G7 mouse tumor cells of the H2-b haplotype, nor untransfected H2-b positive EL-4 mouse tumor cells are recognized; also recorded: did not lead to detectable immune responses | nor untransfected H2-b positive EL-4 mouse tumor cells were recognized

From US20060171988A1, “Method of treatment using foams as artificial lymph nodes” (priority 2005, published 2006)
